{Fluorescein} = fluorescein label (binding site for anti-fluorescein Fab-HRP); {Biotin} = biotin (capture probe anchor)

We go through 1 sequence from patent US7763426B2, “Probes and methods for detection of Escheridia coli and antibiotic resistance” (priority 2004, dated 2010).

A short description of the data set: Double-labeled Test Probes on the electrochemical sensor (no hybridization). As for the experimental part: FIG. 7. The effect of oligonucleotide length on electrochemical signal intensity. Single stranded oligonucleotides (‘Test Probes’) ranging from 20-60 bps in length modified at the 5′- and 3′-ends with biotin and fluorescein, respectively, were tested to examine the effect of probe length on signal intensity. Hybridization was not required in these experiments because, as shown in the inset, the double-labeled probes served as a bridge between fluorescein and biotin on the electrochemical sensor surface. The highest signal output was obtained using the 40 bp probe, yielding a lower limit of detection at a concentration of 10 pM. Background current output was measured using negative control (NC) sensors to which no cell lysates were applied.
Sensor characterization and surface functional layer preparation. Microfabricated electrochemical sensor arrays with an alkanethiolate self-assembled monolayer (SAM) were obtained from GeneFluidics (Monterey Park, Calif.). […]
Amperometric Detection of bacterial 16S rRNA. […] Amperometric current vs. time was measured using a multichannel potentiostat (GeneFluidics). The voltage was fixed at −200 mV (vs. reference), and the electroreduction current was measured at 60 sec after the HRP redox reaction reached steady state. All samples were analyzed in duplicate. […] Positive signals are determined by comparing the signals with the background using paired T test. […]

Turning to “CGTCAATGAGCAAAGGTATTACTCCCTTCCTCCCCGCTGA (DNA CGTCAATGAGCAAAGGTATTACTCCCTTCCTCCCCGCTGA; DNA, 5' {Biotin}, 3' {Fluorescein}, backbone and methylation of C not given here) [40-mer]”, for the setting “5′-biotin, 3′-fluorescein Test Probe”, the “lower limit of detection” value was determined as 10 pM. The “signal relative to 20mer and 60mer Test Probes” value (across a range of concentrations) was “higher signals”.
